Among the test systems are DU-145 prostate; EKVX NSCLC; HCC-2998 colon; HCT-116 colon; HS 578T breast; IGROV1 ovarian; MCF7 breast; NCI-H460 lung; NCI-H522 lung; OVCAR-4 ovarian; OVCAR-5 ovarian; OVCAR-8 ovarian; RPMI-8226 leukemia; RXF 393 renal; SK-MEL-5 melanoma; SN12C renal; SNB-19 CNS; SW-620 colon; T-47D breast; UO-31 renal.
Assay in all cases: NCI tumour cell line growth inhibition, 48 h

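Step 1: Grow cells in 96-well plates. Step 2: Expose to compound for 48 hours at 5 concentrations. Step 3: Interpolate endpoints linearly; if unreached, use highest concentration. Definition used: TGI = concentration required for complete inhibition of growth.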 Some results are limits rather than exact numbers.

Take `CCOC(=O)C(Cc1c2ccccc2cc2ccccc12)(NC(C)=O)C(=O)OCC`: the TGI with DU-145 prostate, in the assay with EKVX NSCLC, in the assay on HCC-2998 colon, in the assay with HCT-116 colon, in the assay with HS 578T breast and with IGROV1 ovarian was over 100 µM in each case. In addition, the TGI with MCF7 breast, in the assay on NCI-H460 lung, in the assay with NCI-H522 lung, with OVCAR-4 ovarian, with OVCAR-5 ovarian and with OVCAR-8 ovarian was over 100 µM in each case. The TGI in the assay on RPMI-8226 leukemia, in the assay on RXF 393 renal, in the assay on SK-MEL-5 melanoma, with SN12C renal, with SNB-19 CNS and in the assay with SW-620 colon was over 100 µM each time. Also, the TGI in the assay on T-47D breast and with UO-31 renal was over 100 µM throughout.
`O=S(=O)(/N=C(\NO)Nc1ccc(Cl)cc1)c1ccc(S(=O)(=O)c2ccccc2)s1`: the TGI with DU-145 prostate amounted to 46 µM; in the assay with EKVX NSCLC, 51.5 µM; with HCC-2998 colon, 29.7 µM; in the assay on HCT-116 colon it was 30.4 µM; in the assay on HS 578T breast, 96.9 µM; in the assay on IGROV1 ovarian it was 39.8 µM. For the same molecule, the TGI is over 100 µM in the assay with MCF7 breast; 29.1 µM in the assay on NCI-H460 lung; 37.7 µM in the assay with NCI-H522 lung; 93.8 µM with OVCAR-4 ovarian; 63.7 µM in the assay on OVCAR-5 ovarian; 89.6 µM in the assay with OVCAR-8 ovarian. Moreover, the TGI in the assay with RPMI-8226 leukemia was 35.8 µM; in the assay with RXF 393 renal, 87.7 µM; with SK-MEL-5 melanoma it was 24.5 µM; in the assay with SN12C renal it was 39.9 µM; in the assay on SNB-19 CNS, over 100 µM; in the assay with SW-620 colon, over 100 µM. In addition, the values for the TGI with T-47D breast and in the assay on UO-31 renal were 96.3 µM and 53.8 µM, respectively.
